We go through 3 molecules from patent US10590147B1, “Spirooxindole-pyrrolothiazole heterocyclic hybrids” (KING SAUD UNIVERSITY, priority 2019, dated 2020).

Holding throughout (assay type): cell-based
Test [1] has as its system Salmonella typhi. Put plainly: Disc diffusion, zone of inhibition. To be noted: drug-resistant S. typhi; for Zone of inhibition: diameter: 37° C., 24h. On the set-up: key to Zone of inhibition (class): R: Resistant. On the procedure:
(§1) The qualitative screenings of antimicrobial activity were measured by plating in petri dishes to determine the formation of zones of inhibition for bacterial pathogens tested against compounds 6a, 6b and the standard antibiotic ampicillin.
(§2) The quantitative and qualitative screening of anti-bacterial activity of compounds 6a and 6b was conducted, the results being described above. Quantitative screening was determined by minimal inhibitory concentration (MIC) and minimal bactericidal concentration (MBC), while qualitative screening was accomplished by disc diffusion method. E. coli (ATCC—25922) and S. epidermis (ATCC 12228) were used as standard strains, and drug-resistant pathogens P. aeruginosa, S. typhi, and S. aureus were used to screen the antimicrobial activity. Gram negative bacteria were maintained on nutrient broth (NB)/agar plates (NA) and gram positive bacteria were maintained on trypticase soy broth (TSB)/agar plates (TSA). The compounds 6a and 6b concentration range was prepared by two-fold dilution in a sterile broth from the stock, using a microtiter 96 well plate method. Twelve dilutions of each compound, ranging from 7500 to 3.65 μg/ml, were tested, and Ampicillin was used as a positive control agent (with a range of 500 to 0.24 μg/ml).
(§3) The mid log bacterial inoculum was speeded on NA/TSA and the loaded disc was placed on agar plates and incubated at 37° C. for 24h. After this period, the inhibitions produced by the compounds around the disc were measured using antibiotic zone scale (Hi-Media, Mumbai, India) and zone of inhibitions were measured in mm.

Test [2] relates to Pseudomonas aeruginosa. Briefly: Disc diffusion, zone of inhibition. On the set-up: key to Zone of inhibition (class): R: Resistant. To be noted: drug-resistant P. aeruginosa; for Zone of inhibition: diameter: 37° C., 24h. On the procedure: as §1, §2, §3
A general note: Agar diffusion results depend on both activity and mobility in agar.

In test [3] the test system is Staphylococcus aureus. Put plainly: Disc diffusion, zone of inhibition. On the set-up: key to Zone of inhibition (class): R: Resistant. To be noted: drug-resistant S. aureus; for Zone of inhibition: diameter: 37° C., 24h. The protocol:
as §1, §2, §3

Test [4] deals with Escherichia coli. Briefly: MIC/MBC by two-fold dilution, microtiter 96 well plate method. Particulars: E. coli (ATCC—25922), standard/control strain. On the procedure: (§4) Compounds 6a and 6b were tested for their antimicrobial activity against both gram positive and gram negative drug-resistant bacteria. Minimum inhibitory concentration (MIC) and minimum bactericidal concentration (MBC) values for compounds 6a and 6b, as compared with a reference antibacterial drug (ampicillin), for Escherichia coli (EC), Pseudomonas aeruginosa (PS), Salmonella typhi (ST), Staphylococcus aureus (SA), and Staphylococcus epidermis (SE) are reported in Tables 2A and 2B.
as §2

The test system of test [5] is Staphylococcus epidermis. The test is described as above. Particulars: S. epidermis (ATCC 12228), standard/control strain. The protocol:
as §4, §2

Test [6] concerns Salmonella typhi. Described as above. Particulars: drug-resistant S. typhi. The protocol: as §4, §2
For test [7], the system named is Pseudomonas aeruginosa. The test is described as above. Particulars: drug-resistant P. aeruginosa. The protocol: as §4, §2
The subject of test [8] is Staphylococcus aureus. The description is as above. To be noted: drug-resistant S. aureus. On the procedure:
as §4, §2

The test system of test [9] is Escherichia coli. Put plainly: Disc diffusion, zone of inhibition. Particulars: E. coli control strain; for Zone of inhibition: diameter: 37° C., 24h. On the procedure: as §1, §2, §3
The test system of test [10] is Staphylococcus epidermis. Put plainly: Disc diffusion, zone of inhibition. To be noted: S. epidermis control strain; for Zone of inhibition: diameter: 37° C., 24h. The protocol: as §1, §2, §3
The subject of another test is S. aureus. Put plainly: AO/EB live/dead bacterial double staining. To be noted: S. aureus treated at MIC, 4 hours; fluorescent microscope. The protocol:
(§5) The acridine orange (AO) and ethidium bromide (EB) double staining method was used to analyse the Live/dead bacterial cells for untreated and compound 6a-treated S. aureus and P. aeruginosa cells. Both sets of cells, treated and untreated for each of the two bacteria, were stained with AO/EB for 15 minutes. The unbound dyes were removed by rinsing the cells twice with phosphate buffer saline (PBS). 10 μl samples of each were then placed on a glass slide with coverslip, and observed using a ZEISS inverted florescent microscope. The untreated gram positive (FIG. 6A) and gram negative (FIG. 6C) bacterial cells appeared green due to the presence of healthy, viable cells with intact/undamaged cell membranes and uniform chromatin. In contrast, the compound 6a-treated cells (treated gram positive in FIG. 6B, and treated gram negative in 6D) appeared red due to the resulting dents, blisters and damaged cell walls on bacterial cells, providing entry for the EB dye. Thus, the AO/EB double staining confirms the bactericidal action of compound 6a through cell wall and cell membrane damage.
(§6) Fluorescent dye stock solution was prepared by dissolving equal quantities of acridine orange (AO) and ethidium bromide (EB)—10 mg each—in 10 ml of PBS. The working solution was prepared by diluting 200 μl of stock solution into 10 ml of PBS. […]

The test system of another test is P. aeruginosa. Briefly: AO/EB live/dead bacterial double staining. Particulars: P. aeruginosa treated at MIC, 4 hours; fluorescent microscope. The protocol: as §5, §6

≈ marks a conversion by molar mass, not a printed value. Where “and” joins values, the source holds several entries; their conditions need not be identical. Equal values may be shown once. Entries after “also recorded” stand apart in the source; their conditions may differ. Read-outs that look alike come from different tables or passages of the source.

On to `O=C1C(=Cc2ccccc2F)CNCC12C(c1ccccc1F)C1CSCN1C21C(=O)Nc2ccccc21` (stereo not drawn) [Compound 6b, spiro[5.3″ ]-oxindole-spiro-[6.2′]-6′-(2-fluorophenylmethylidene)tetrahydro-4′(1H)-pyridinone-7-(2-fluorophenyl)tetrahydro-1H-pyrrolo[1,2-c][1,3] thiazole], for which the “Zone of inhibition: diameter” value in the test with Salmonella typhi [1] (120 μg/disc) is 16.3 ± 1.08 mm; with Pseudomonas aeruginosa [2] (120 μg/disc), 16.3 ± 1.63 mm; with Staphylococcus aureus [3] (120 μg/disc) it was 17.6 ± 1.47 mm; in the test on Escherichia coli [9] (120 μg/disc), 18.6 ± 1.47 mm; with Staphylococcus epidermis [10] (120 μg/disc), 19.3 mm. Further, the MBC against Escherichia coli [4] worked out at 58.55 µg/mL (≈ 111 µM); in the test on Staphylococcus epidermis [5], 58.55 µg/mL (≈ 111 µM); with Salmonella typhi [6], 117.15 µg/mL (≈ 221 µM); in the test with Pseudomonas aeruginosa [7] it was 117.15 µg/mL (≈ 221 µM); against Staphylococcus aureus [8] it was 117.15 µg/mL (≈ 221 µM). Further, the MIC against Escherichia coli [4] was 29.25 µg/mL (≈ 55.2 µM); against Staphylococcus epidermis [5], 29.25 µg/mL (≈ 55.2 µM); against Salmonella typhi [6], 58.55 µg/mL (≈ 111 µM); in the test on Pseudomonas aeruginosa [7], 58.55 µg/mL (≈ 111 µM); against Staphylococcus aureus [8], 68.55 µg/mL (≈ 129 µM).

Consider `O=C1C(=Cc2ccc(F)cc2)CNCC12C(c1ccc(F)cc1)C1CSCN1C21C(=O)Nc2ccccc21` (stereo not drawn) [Compound 6a, spiro[5.3″ ]-oxindole-spiro-[6.2′]-6′-(4-fluorophenylmethylidene)tetrahydro-4′(1H)-pyridinone-7-(4-fluorophenyl)tetrahydro-1H-pyrrolo[1,2-c][1,3] thiazole], for which the “Zone of inhibition: diameter” value with Salmonella typhi [1] (60 μg/disc) is 22.3±1.47 mm; in the test on Pseudomonas aeruginosa [2] (60 μg/disc) it was 19.3±0.81 mm; in the test on Staphylococcus aureus [3] (60 μg/disc), 26.3±0.81 mm; in the test on Escherichia coli [9] (60 μg/disc), 27.3±1.08 mm; with Staphylococcus epidermis [10] (60 μg/disc) it was 31.3±1.08 mm and 31.3 mm. In addition, the MBC against Escherichia coli [4] amounted to 29.25 µg/mL (≈ 55.2 µM); with Staphylococcus epidermis [5], 29.25 µg/mL (≈ 55.2 µM); with Salmonella typhi [6], 58.55 µg/mL (≈ 111 µM); in the test with Pseudomonas aeruginosa [7], 58.55 µg/mL (≈ 111 µM); in the test on Staphylococcus aureus [8] it was 58.55 µg/mL (≈ 111 µM). The MIC was 14.62 µg/mL (≈ 27.6 µM) against Escherichia coli [4]; 14.62 µg/mL (≈ 27.6 µM) in the test on Staphylococcus epidermis [5]; 29.25 µg/mL (≈ 55.2 µM) against Salmonella typhi [6]; 29.25 µg/mL (≈ 55.2 µM) against Pseudomonas aeruginosa [7]; 29.25 µg/mL (≈ 55.2 µM) with Staphylococcus aureus [8]. Besides, the “Live/dead AO/EB double staining appearance of treated cells” value with S. aureus was “dented, blistered and damaged cell walls; also recorded: appeared red”; in the test on P. aeruginosa, “dented, blistered and damaged cell walls; also recorded: appeared red”.

As to `CC1(C)S[C@@H]2[C@H](NC(=O)[C@H](N)c3ccccc3)C(=O)N2[C@H]1C(=O)O` [Ampicillin, reference compound], the “Zone of inhibition (class)” value with Salmonella typhi [1] (25 μg/disc), in the test with Pseudomonas aeruginosa [2] (25 μg/disc) and with Staphylococcus aureus [3] (25 μg/disc) was “R” in each case. Also, the zone of inhibition at 25 µg/disc with Staphylococcus aureus [3] (Staphylococcus aureus, 25 μg/disc, read-out: Zone of inhibition: diameter) was less than 13 mm; with Escherichia coli [9] (Escherichia coli, 25 μg/disc, read-out: Zone of inhibition: diameter), 22.3 ± 1.77 mm; in the test on Staphylococcus epidermis [10] (Staphylococcus, 25 μg/disc, read-out: Zone of inhibition: diameter) it was 23.3 mm. Moreover, the MBC was determined as 7.81 µg/mL (≈ 22.4 µM) in the test on Escherichia coli [4] (Escherichia coli, read-out: MBC) and 7.81 µg/mL (≈ 22.4 µM) in the test on Staphylococcus epidermis [5] (Staphylococcus, ATCC12228, read-out: MBC). Moreover, the MIC is 3.9 µg/mL (≈ 11.2 µM) in the test on Escherichia coli [4] (Escherichia coli, read-out: MIC) and 3.9 µg/mL (≈ 11.2 µM) with Staphylococcus epidermis [5] (Staphylococcus, ATCC12228, read-out: MIC).

What is called MBC is the lowest tested concentration that kills the bacteria rather than only halting them. Usually MIC stands for the smallest concentration in the dilution series that meets the test's criterion for growth inhibition. What is called zone of inhibition is the extent of the growth-free halo in a diffusion test.
